Experiment: Acyl group migration (rearrangement) of pro-drug in DMSO-d6/buffer solution monitored by 19F-NMR
Assay type: physicochemical
Procedure: A compound of formula (I) OR (X) (5 mg) is dissolved in DMSO-d6 (500 μL) and either pH 4 buffer solution (500 μL, potassium hydrogen phthalate buffer) or pH 7 buffer solution (500 μL, sodium and potassium phosphate buffer) is added. The sample is then heated to 40° C. The O-acyl or N-acyl to N-terminal N-acyl migration is monitored by observing the change in chemical shift for the aromatic fluorines using ^19F-NMR. (Fluorine shifts associated with the desired migration were confirmed by spiking with authentic analogue). The sample is analyzed by ^19F-NMR at approxiamately 0, 1.5, 3, 24, 48, and 144 hours. The amount of O-acyl pro-drug, N-acyl pro-drug, and desired migration product at each time point are assigned by integrating the corresponding NMR signal.
N˜1˜-[(2R,3S)-3-amino-4-(3,5-difluorophenyl)-2-hydroxybutyl]-5-(1,3-oxazol-2-yl)-N˜3˜,N˜3˜-dipropyl-N˜1˜-[3-(trifluoromethyl)benzyl]isophthalamide hydrochloride (PREPARATION 7, 5 mg) is dissolved in DMSO-d6 (500 μL) and pH 4 buffer solution (500 μL, potassium hydrogen phthalate buffer) is added. The sample is then heated to 40° C. The N-acyl to N-terminal N-acyl migration is monitored by observing the change in chemical shift for the aromatic fluorines using ^19F-NMR. (Fluorine shifts for the desired migration product in the presence of buffer was confirmed by spiking with authentic migration product, N^1-((1S,2R)-1-(3,5-difluorobenzyl)-2-hydroxy-3-{[3-(trifluoromethyl)benzyl]amino}propyl)-5-(1,3-oxazol-2-yl)-N^3,N^3-dipropylisophthalamide.) NMR data is collected at 0, 1, 3, 25, 48, 96, and 144 hours. The amount of N-acyl pro-drug and desired migration product present at each time point is assigned by integrating the corresponding NMR signal.
The following examples illustrate the solution acyl group migration of compounds of the formulae (I) and (X) as observed by ^19F NMR spectroscopy. Data were collected as described in Example 1, above.

| SMILES | HEA product (% present) (pH 4, 40° C., time 0 hr) [%] | N-acyl prodrug (% present) (pH 4, 40° C., time 0 hr) [%] | O-acyl pro-drug (% present) (pH 4, 40° C., time 0 hr) [%] | HEA product (% present) (pH 4, 40° C., time 1 hr) [%] | N-acyl prodrug (% present) (pH 4, 40° C., time 1 hr) [%] | O-acyl pro-drug (% present) (pH 4, 40° C., time 1 hr) [%] | HEA product (% present) (pH 4, 40° C., time 3 hr) [%] | N-acyl prodrug (% present) (pH 4, 40° C., time 3 hr) [%] | O-acyl pro-drug (% present) (pH 4, 40° C., time 3 hr) [%] | HEA product (% present) (pH 4, 40° C., time 24 hr) [%] | N-acyl prodrug (% present) (pH 4, 40° C., time 24 hr) [%] | O-acyl pro-drug (% present) (pH 4, 40° C., time 24 hr) [%] | HEA product (% present) (pH 4, 40° C., time 48 hr) [%] | N-acyl prodrug (% present) (pH 4, 40° C., time 48 hr) [%] | O-acyl pro-drug (% present) (pH 4, 40° C., time 48 hr) [%] | HEA product (% present) (pH 7, 40° C., time 0 hr) [%] | N-acyl prodrug (% present) (pH 7, 40° C., time 0 hr) [%] | O-acyl pro-drug (% present) (pH 7, 40° C., time 0 hr) [%] | HEA product (% present) (pH 7, 40° C., time 1 hr) [%] | N-acyl prodrug (% present) (pH 7, 40° C., time 1 hr) [%] | other results |
| --- | --- | --- | --- | --- | --- | --- | --- | --- | --- | --- | --- | --- | --- | --- | --- | --- | --- | --- | --- | --- | --- |
| CCCN(CCC)C(=O)c1cc(C(=O)N(Cc2cccc(CC)c2)C[C@@H](O)[C@@H](N)Cc2cc(F)cc(F)c2)cc(-c2ncco2)c1.Cl [Preparation 19, N^1-[(2R,3S)-3-amino-4-(3,5-difluorophenyl)-2-hydroxybutyl]-N\(u)1\(d)-(3-ethylbenzyl)-5-(1,3-oxazol-2-yl)-N^3,N^3-dispropylisophthalamide hydrochloride] | 0 | 100 | 0 | 0 | 100 | 0 | 0 | 100 | 0 | 3 | 97 | 0 | 5 | 95 | 0 | 0 | 100 | 0 | 3 | 97 | HEA product (% present) (pH 4, 40° C., time 96 hr): 8%; N-acyl prodrug (% present) (pH 4, 40° C., time 96 hr): 92%; O-acyl pro-drug (% present) (pH 4, 40° C., time 96 hr): 0%; O-acyl pro-drug (% present) (pH 7, 40° C., time 1 hr): 0%; HEA product (% present) (pH 7, 40° C., time 3 hr): 9%; N-acyl prodrug (% present) (pH 7, 40° C., time 3 hr): 91%; O-acyl pro-drug (% present) (pH 7, 40° C., time 3 hr): 0%; HEA product (% present) (pH 7, 40° C., time 24 hr): 40%; N-acyl prodrug (% present) (pH 7, 40° C., time 24 hr): 60%; O-acyl pro-drug (% present) (pH 7, 40° C., time 24 hr): 0%; HEA product (% present) (pH 7, 40° C., time 48 hr): 63%; N-acyl prodrug (% present) (pH 7, 40° C., time 48 hr): 37%; O-acyl pro-drug (% present) (pH 7, 40° C., time 48 hr): 0%; HEA product (% present) (pH 7, 40° C., time 96 hr): 81%; N-acyl prodrug (% present) (pH 7, 40° C., time 96 hr): 19%; O-acyl pro-drug (% present) (pH 7, 40° C., time 96 hr): 0% |
| CCCN(CCC)C(=O)c1cc(C(=O)N(Cc2cccc(C(F)(F)F)c2)C[C@@H](O)[C@@H](N)Cc2cc(F)cc(F)c2)cc(-c2ncco2)c1.Cl [Preparation 20, N^1-[(2R,3S)-3-amino-4-(3,5-difluorophenyl)-2-hydroxybutyl]-5-(1,3-oxazol-2-yl)-N^3,N^3-dipropyl-N^1-[3-(trifluoromethyl)benzyl]-isophthalamide hydrochloride] | 0 | 100 | 0 | 3 | 97 | 0 | 4 | 96 | 0 | 7 | 93 | 0 | 8 | 92 | 0 | 0 | 100 | 0 | 7 | 93 | HEA product (% present) (pH 4, 40° C., time 96 hr): 12%; N-acyl prodrug (% present) (pH 4, 40° C., time 96 hr): 88%; O-acyl pro-drug (% present) (pH 4, 40° C., time 96 hr): 0%; O-acyl pro-drug (% present) (pH 7, 40° C., time 1 hr): 0%; HEA product (% present) (pH 7, 40° C., time 3 hr): 12%; N-acyl prodrug (% present) (pH 7, 40° C., time 3 hr): 88%; O-acyl pro-drug (% present) (pH 7, 40° C., time 3 hr): 0%; HEA product (% present) (pH 7, 40° C., time 24 hr): 51%; N-acyl prodrug (% present) (pH 7, 40° C., time 24 hr): 49%; O-acyl pro-drug (% present) (pH 7, 40° C., time 24 hr): 0%; HEA product (% present) (pH 7, 40° C., time 48 hr): 73%; N-acyl prodrug (% present) (pH 7, 40° C., time 48 hr): 27%; O-acyl pro-drug (% present) (pH 7, 40° C., time 48 hr): 0%; HEA product (% present) (pH 7, 40° C., time 96 hr): 88%; N-acyl prodrug (% present) (pH 7, 40° C., time 96 hr): 12%; O-acyl pro-drug (% present) (pH 7, 40° C., time 96 hr): 0% |
| C#Cc1cccc(C2(NC[C@@H](OC(=O)c3cc(C(=O)N(CCC)CCC)cc(-c4ncco4)c3)[C@@H](N)Cc3cc(F)cc(F)c3)CC2)c1 [Preparation 22, (1R,2S)-2-amino-3-(3,5-difluorophenyl)-1-({[1-(3-ethynylphenyl)cyclopropyl]amino}methyl)propyl 3-[(dipropylamino)carbonyl]-5-(1,3-oxazol-2-yl)benzoate] | 0 | 0 | 100 | 13 | 0 | 87 | 27 | 0 | 66 | 78 | 0 | 9 | 86 | 0 | 0 | 0 | 0 | 100 | 100 | 0 | HEA product (% present) (pH 4, 40° C., time 0.5 hr): 7%; N-acyl prodrug (% present) (pH 4, 40° C., time 0.5 hr): 0%; O-acyl pro-drug (% present) (pH 4, 40° C., time 0.5 hr): 93%; HEA product (% present) (pH 4, 40° C., time 6 hr): 42%; N-acyl prodrug (% present) (pH 4, 40° C., time 6 hr): 0%; O-acyl pro-drug (% present) (pH 4, 40° C., time 6 hr): 49%; HEA product (% present) (pH 7, 40° C., time 0.5 hr): 10%; N-acyl prodrug (% present) (pH 7, 40° C., time 0.5 hr): 0%; O-acyl pro-drug (% present) (pH 7, 40° C., time 0.5 hr): 10%; O-acyl pro-drug (% present) (pH 7, 40° C., time 1 hr): 0% |
